Source: US10059996B2, “Susceptibility to and stratification for monoaminergic antidepressants” (priority 2012, dated 2018)
Entries after “also recorded” stand apart in the source; their conditions may differ. Counter-ions that a name gives are not always drawn.

What was measured:
[1] = system: BDNF-gene exon-IV promoter construct; experiment: Luciferase-based reporter gene assay with BDNF-gene exon-IV promoter construct in SH-SY5Y cells; type: cell-based, human; conditions: 48 h incubation, fluoxetine 3, 5, 10 μM or venlafaxine 10, 30, 50 μM; for change of luciferase reporter gene activity (luminescence), methylated construct: Sss1-methylated BDNF-gene exon-IV promoter in pGL4.14, SH-SY5Y; for change of luciferase reporter gene activity (luminescence), unmethylated construct: unmethylated BDNF-gene exon-IV promoter in pGL4.14, SH-SY5Y, hydrochloride
SH-Sy5Y cells = experiment: CellTiter-Glo Luminescent Cell Viability Assay (cytotoxic concentrations); conditions: 10 μM, 30 μM, 50 μM Venlafaxine
Protocol: Cells were maintained at 37° C. in a humidified atmosphere of 5% CO2 in atmosphere. To determine cytotoxic concentrations of fluoxetine and venlafaxine by CellTiter-Glo Luminescent Cell Viability Assay (Promega, Madison, Wis.) 1.5×10^5 cells were plated in 96 well plates and grown for 24 hours. Three wells at a time were incubated with different amounts of fluoxetine hydrochloride or venlafaxine hydrochloride (both Sigma-Aldrich Germany, Taufkirchen), both solved in sterile deionized water at 4 mg/mL. […] After incubation for 24 hours cytotoxicity was documented by microscope photography and measured using a GloMax Multi+ Detection System (Promega, Madison, Wis.).

Row | SMILES | change of luciferase reporter gene activity (luminescence), methylated construct [1] | change of luciferase reporter gene activity (luminescence), unmethylated construct [1] | cytotoxicity at the concentrations used (SH-Sy5Y cells)
1 | CNCCC(Oc1ccc(C(F)(F)F)cc1)c1ccccc1 (centres unmarked) [fluoxetine, fluoxetine hydrochloride] | did not change expression levels | decrease of reporter gene activity; also recorded: significant decrease of luciferase expression | 
2 | COc1ccc(C(CN(C)C)C2(O)CCCCC2)cc1 (centres unmarked) [venlafaxine, venlafaxine hydrochloride] | did not change expression levels | decrease of reporter gene activity; also recorded: significant decrease of luciferase expression | non-toxic
